In publication PMC4506530, “Small-Molecule Inhibitors That Target Protein–Protein Interactions in the RAD51 Family of Recombinases” (Chemmedchem, 2014):
Like-named read-outs stand apart in the source and are kept apart here.

Key:
HumRADA2 [1] = molecular target: T1, HumRADA2 (Pyrococcus furiosus, UniProt O74036, D220A/DEL288-314/E219S/I169M/K221M/V202Y/Y201A); assay: Isothermal titration calorimetry (ITC), direct binding to HumRADA2; conditions: for LLE: LLE=pKD−clog P, clog P calculated with Instant JChem (ChemAxon); for KD: ITC, substituted tryptamine sulfonamide series (Table 2), error from fitting a single-site binding model; for -TDS / DG / DH: ITC thermodynamic binding profile, Table S1
From the text: We previously published fragment-screening results using a humanised RAD51 surrogate from Pyrococcus furiosus, which we refer to as HumRADA2 (previously referred to as MAYSAM RadA).[23] In this surrogate protein, the N-terminal domain with the oligomerisation sequence was removed to monomerise the protein and expose the FxxA binding site for screening, and six surface residues were mutated around the Phe pocket in order to humanise the protein in this region.
(§1) Supplemental Experimental Procedures
(§2) C-terminal ATPase domain of P. furiosus RadA (residues 108–349, with deletion of the “L2” loop residues 288–314) was expressed in E.coli and purified as described before using ion-exchange ad size exclusion chromatographies.[1] Purified protein was concentrated to 0.5 mM, flash frozen in liquid nitrogen and stored at -80C. Protein concentration was determined by measuring absorbance at 280 nm in 6M GndHCl and using calculated absorption coefficient […]
(§3) Isothermal Titration Calorimetry
(§4) ITC experiments were performed at 25°C on a MicroCal ITC-200 (GE Healthcare).
(§5) HumRadA2 (humanized RadA) (600 µM in 20 mM MES pH 6.0 with 100 mM NaCl and 0.5 mM EDTA was diluted with Tris buffer (200 mM, pH 7.5 with 100 mM NaCl), and DMSO was added to match to the ligand solution. In titrations with ATP, 5 mM MgCl2 was included in the ligand buffer and the protein buffer. Compounds in DMSO were diluted into the same Tris buffer to give a final concentration of 0.6–10 mM ligand in 10% DMSO and Tris buffer. Care was taken to ensure that the DMSO concentrations in the protein and ligand solutions were well matched so as to avoid artefacts arising from heats of dilution of DMSO. In a typical experiment, protein (60 µM) was loaded in the sample cell, and 16 injections (2.4 µL) of 4.8 s duration were made at 80 s intervals from a syringe loaded with ligand (0.6–10 mM) and rotating at 1000 rpm. In all titrations, an initial injection of ligand (0.4 µL) was made and discarded during data analysis. Control titrations of ligand to buffer were performed and […]
(§6) The thermodynamic parameters were obtained by fitting the data to a single-site-binding model by using Origin software and fixing the stoichiometry as 1.0 for […]

HumRADA2 [2] = molecular target: T1, HumRADA2; assay: Competitive ITC experiments to HumRADA2 (ligand titrated in the presence of compound); format: binding; conditions: protein pre-incubated with compound (200 μM 5 c)
Description: The KD measurement of each ligand was then repeated, but in the presence of 200 μM 5 c (bottom row titrations, Figure 2 B).
as §1, §2, §3, §4, §5, §6

HumRADA2 [3] = molecular target: T1, HumRADA2; conditions: previously published fragment screening, humanised RadA, cited from earlier work
[4] = tryptophan ester series (Table 1)
[5] = substituted tryptamine series (Table 2)
[6] = ITC against apo protein, in the absence of 5 c, read-out: KD

| Molecule | Kd (HumRADA2 [1]) [µM] | LLE (HumRADA2 [1]; [4]) | LE (ligand efficiency) (HumRADA2 [1]; [4]) [kcal mol−1 per heavy atom] | LLE (HumRADA2 [1]; [5]) | LE (ligand efficiency) (HumRADA2 [1]; [5]) [kcal mol−1 per heavy atom] | also measured |
| --- | --- | --- | --- | --- | --- | --- |
| Cl.N[C@@H](Cc1c[nH]c2ccccc12)C(=O)OCc1ccccc1 [5 b] | 200 ± 8 | 0.7 | 0.23 | – | – | – |
| O=S(=O)(NCCc1c[nH]c2ccccc12)c1cccs1 [7 j] | 16 ± 6 | – | – | 1.9 | 0.33 | – |
| O=C(N[C@@H](Cc1c[nH]c2ccccc12)C(=O)OCCc1ccccc1)c1cccc([N+](=O)[O-])c1 [6 c] | > 200 | – | – | – | – | – |
| Cl.N[C@@H](Cc1c[nH]c2ccccc12)C(=O)OCCC1CCCCC1 [5 m] | 28 ± 9 | 0.8 | 0.27 | – | – | – |
| CS(=O)(=O)NCCc1c[nH]c2ccccc12 [7 i] | > 200 | – | – | – | – | KD (HumRADA2 [1]): No activity was detectable |
| CNC(=O)C(N)Cc1c[nH]c2ccccc12 (stereo not shown) [compound 2] | 1500 ± 24 | 2.2 | 0.24 | – | – | -TDS (HumRADA2 [1]): 1.3 kcal/mol; DG (HumRADA2 [1]): -3.8 kcal/mol; DH (HumRADA2 [1]): -5.1 kcal/mol |
| O=S(=O)(NCCc1c[nH]c2ccccc12)c1ccc(Br)s1 [7 k] | 10 ± 1 | – | – | 1.2 | 0.32 | – |
| COc1ccc(CCOC(=O)[C@@H](N)Cc2c[nH]c3ccccc23)cc1 [5 k] | > 200 | – | – | – | – | – |
| COC(=O)C(Cc1c[nH]c2ccccc12)NC(C)=O (stereo not shown) [compound 3] | 810 ± 19 | 2.0 | 0.22 | – | – | -TDS (HumRADA2 [1]): 0.9 kcal/mol; DG (HumRADA2 [1]): -4.2 kcal/mol; DH (HumRADA2 [1]): -5.1 kcal/mol |
| CC(=O)N[C@@H](Cc1c[nH]c2ccccc12)C(=O)OCCc1ccccc1F [6 b] | 18 ± 1 | 1.5 | 0.25 | – | – | – |
| Nc1cccc(S(=O)(=O)NCCc2c[nH]c3ccccc23)c1 [7 f] | 31 ± 6 | – | – | 2.4 | 0.28 | – |
| O=[N+]([O-])c1cccc(S(=O)(=O)NCCc2c[nH]c3ccccc23)c1 [7 e] | 18 ± 4 | – | – | 1.9 | 0.27 | – |
| O=C(CCc1ccccc1)N[C@@H](Cc1c[nH]c2ccccc12)C(=O)OCCc1ccccc1 [6 e] | > 200 | – | – | – | – | – |
| COc1ccc(S(=O)(=O)NCCc2c[nH]c3ccccc23)cc1 [7 g] | 120 ± 10 | – | – | 1.2 | 0.23 | – |
| O=S(=O)(NCCc1c[nH]c2ccccc12)c1cc(Br)c(Cl)s1 [7 m] | 1.3 ± 0.1 | – | – | 1.5 | 0.36 | -TDS (HumRADA2 [1]): -2.7 kcal/mol; DG (HumRADA2 [1]): -8.1 kcal/mol; DH (HumRADA2 [1]): -5.4 kcal/mol; competition with binding of the RadA self-oligomerisation peptide (HumRADA2 [2]): blockage of the binding |
| Cl.N[C@@H](Cc1c[nH]c2ccccc12)C(=O)OCCCc1ccccc1 [5 d] | 160 ± 7 | 0.02 | 0.22 | – | – | – |
| Cc1noc(C)c1S(=O)(=O)NCCc1c[nH]c2ccccc12 [7 q] | 110 ± 12 | – | – | 2.4 | 0.25 | – |
| O=S(=O)(NCCc1c[nH]c2ccccc12)c1cc2ccccc2s1 [7 p] | 1.6 ± 0.6 | – | – | 1.8 | 0.33 | – |
| Cc1ccccc1CCOC(=O)[C@@H](N)Cc1c[nH]c2ccccc12.Cl [5 h] | 30 ± 9 | 0.7 | 0.26 | – | – | – |
| O=S(=O)(NCCc1c[nH]c2ccccc12)c1cc(Br)c(Br)s1 [7 o] | 67 ± 29 | – | – | −0.4 | 0.27 | – |
| Cl.N[C@@H](Cc1c[nH]c2ccccc12)C(=O)OCCc1c[nH]c2ccccc12 [5 n] | 35 ± 9 | 1.0 | 0.23 | – | – | – |
| O=S(=O)(Cc1ccccc1)NCCc1c[nH]c2ccccc12 [7 b] | > 200 | – | – | – | – | KD (HumRADA2 [1]): No activity was detectable |

| Molecule | Kd (HumRADA2 [1]) [µM] | LLE (HumRADA2 [1]; [4]) | LE (ligand efficiency) (HumRADA2 [1]; [4]) [kcal mol−1 per heavy atom] | LLE (HumRADA2 [1]; [5]) | LE (ligand efficiency) (HumRADA2 [1]; [5]) [kcal mol−1 per heavy atom] | also measured |
| --- | --- | --- | --- | --- | --- | --- |
| Cc1cccc(CCOC(=O)[C@@H](N)Cc2c[nH]c3ccccc23)c1.Cl [5 i] | 30 ± 7 | 0.7 | 0.26 | – | – | – |
| O=S(=O)(NCCc1c[nH]c2ccccc12)c1ccccc1Br [7 d] | 3.1 ± 0.1 | – | – | 1.8 | 0.34 | – |
| O=S(=O)(NCCc1c[nH]c2ccccc12)c1ccc(Br)cc1 [7 c] | 92 ± 22 | – | – | 0.4 | 0.25 | – |
| Cl.N[C@@H](Cc1c[nH]c2ccccc12)C(=O)Oc1ccccc1 [5 a] | 190 ± 5 | 0.7 | 0.24 | – | – | – |
| O=S(=O)(NCCc1c[nH]c2ccccc12)c1ccco1 [7 r] | 18 ± 2 | – | – | 2.6 | 0.32 | – |
| O=S(=O)(NCCc1c[nH]c2ccccc12)c1ccccc1 [7 a] | 28 ± 6 | – | – | 1.6 | 0.30 | – |
| Cl.N[C@@H](Cc1c[nH]c2ccccc12)C(=O)OCCc1ccccc1O [5 g] | 27 ± 12 | 1.5 | 0.26 | – | – | – |
| c1ccc2[nH]ncc2c1 [indazole] | – | – | – | – | – | Kd (HumRADA2 [3]): 1000 µM |
| Cl.N[C@@H](Cc1c[nH]c2ccccc12)C(=O)OCCc1ccccc1F [5 f] | 25 ± 5 | 1.1 | 0.26 | – | – | – |
| O=C(NC(Cc1c[nH]c2ccccc12)C(=O)OCCc1ccccc1)C1CCCCC1 (stereo not shown) [6 d] | > 200 | – | – | – | – | – |
| Ac-FHTA-NH2 [reference compound] | – | – | – | – | – | Kd (HumRADA2 [1]; [6]): 250 µM; Kd (HumRADA2 [3]; read-out: KD): 250 µM |
| CNC(=O)C(Cc1c[nH]c2ccccc12)NC(C)=O (stereo not shown) [compound 4] | 890 ± 15 | 2.6 | 0.22 | – | – | -TDS (HumRADA2 [1]): 1.6 kcal/mol; DG (HumRADA2 [1]): -4.2 kcal/mol; DH (HumRADA2 [1]): -5.8 kcal/mol |
| O=S(=O)(NCCc1c[nH]c2ccccc12)c1ccc(Cl)s1 [7 l] | 13 ± 1 | – | – | 1.3 | 0.32 | – |
| O=S(=O)(NCCc1c[nH]c2ccccc12)c1c(Cl)sc(Cl)c1Br [7 n] | 2.3 ± 0.4 | – | – | 0.6 | 0.33 | – |
| COC(=O)c1cccc2[nH]ccc12 [4-methyl ester indole] | – | – | – | – | – | Kd (HumRADA2 [3]; read-out: KD): 1300 µM |
| Nc1ncnc2c1ncn2[C@@H]1O[C@H](COP(=O)(O)OP(=O)(O)OP(=O)(O)O)[C@@H](O)[C@H]1O [ATP, reference compound] | – | – | – | – | – | Kd (HumRADA2 [1]; [6]): 2.5 µM |
| COC(=O)[C@@H](N)Cc1c[nH]c2ccccc12 [compound 1, L-tryptophan methyl ester] | – | 1.9 | 0.28 | – | – | -TDS (HumRADA2 [1]): 2.0 kcal/mol; DG (HumRADA2 [1]): -4.4 kcal/mol; DH (HumRADA2 [1]): -6.4 kcal/mol; Kd (HumRADA2 [3]): 570 µM |
| N[C@@H](Cc1c[nH]c2ccccc12)C(=O)NCCc1ccccc1 [5 e] | > 200 | – | – | – | – | – |
| Cc1ccc(CCOC(=O)C(N)Cc2c[nH]c3ccccc23)cc1 (stereo not shown) [5 j] | 22 ± 4 | 0.8 | 0.26 | – | – | – |
| N[C@@H](Cc1c[nH]c2ccccc12)C(=O)OCCc1ccc(Br)cc1 [5 l] | > 200 | – | – | – | – | – |
| O=C(NC(Cc1c[nH]c2ccccc12)C(=O)OCCc1ccccc1)c1ccccc1 (stereo not shown) [6 a] | 3 ± 1 | 0.5 | 0.24 | – | – | -TDS (HumRADA2 [1]): -4.2 kcal/mol; DG (HumRADA2 [1]): -7.6 kcal/mol; DH (HumRADA2 [1]): -3.4 kcal/mol |
| Cn1cnc(S(=O)(=O)NCCc2c[nH]c3ccccc23)c1 [7 s] | 420 ± 74 | – | – | 1.8 | 0.22 | – |
